These are literature values, as cited in patent publication US20230390251A1, “METHODS OF TREATING RIBONUCLEOTIDE REDUCTASE-RELATED DISEASES WITH A RIBONUCLEOTIDE REDUCTASE INHIBITOR” (TAIHO PHARMACEUTICAL CO., LTD., priority 2020, published 2023).

In data set [1] the target is T1, Ribonucleotide reductase (RNR) (Homo sapiens, UniProt P23921+P31350).
T1 sequence (P23921 1-792): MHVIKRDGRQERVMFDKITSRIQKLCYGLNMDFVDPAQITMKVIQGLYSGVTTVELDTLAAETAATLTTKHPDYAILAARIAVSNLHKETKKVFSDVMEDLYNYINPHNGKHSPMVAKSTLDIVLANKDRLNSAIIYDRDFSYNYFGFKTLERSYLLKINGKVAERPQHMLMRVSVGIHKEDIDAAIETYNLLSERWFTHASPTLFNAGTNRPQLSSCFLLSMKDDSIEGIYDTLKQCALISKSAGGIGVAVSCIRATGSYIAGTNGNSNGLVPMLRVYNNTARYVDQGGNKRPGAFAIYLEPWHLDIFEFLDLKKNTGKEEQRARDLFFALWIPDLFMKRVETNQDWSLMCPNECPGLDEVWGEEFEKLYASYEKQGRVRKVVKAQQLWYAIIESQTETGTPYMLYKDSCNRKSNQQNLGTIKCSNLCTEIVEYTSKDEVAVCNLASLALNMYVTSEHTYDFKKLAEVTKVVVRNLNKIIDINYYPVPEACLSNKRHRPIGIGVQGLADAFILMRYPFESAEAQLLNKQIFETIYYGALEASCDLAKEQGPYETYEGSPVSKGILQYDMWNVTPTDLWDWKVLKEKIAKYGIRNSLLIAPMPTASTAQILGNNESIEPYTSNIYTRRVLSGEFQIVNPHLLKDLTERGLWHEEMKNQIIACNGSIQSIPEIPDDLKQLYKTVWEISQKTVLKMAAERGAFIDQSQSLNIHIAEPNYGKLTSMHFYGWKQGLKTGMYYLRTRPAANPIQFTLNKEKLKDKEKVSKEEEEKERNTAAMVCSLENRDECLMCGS
T1 sequence (P31350 1-389): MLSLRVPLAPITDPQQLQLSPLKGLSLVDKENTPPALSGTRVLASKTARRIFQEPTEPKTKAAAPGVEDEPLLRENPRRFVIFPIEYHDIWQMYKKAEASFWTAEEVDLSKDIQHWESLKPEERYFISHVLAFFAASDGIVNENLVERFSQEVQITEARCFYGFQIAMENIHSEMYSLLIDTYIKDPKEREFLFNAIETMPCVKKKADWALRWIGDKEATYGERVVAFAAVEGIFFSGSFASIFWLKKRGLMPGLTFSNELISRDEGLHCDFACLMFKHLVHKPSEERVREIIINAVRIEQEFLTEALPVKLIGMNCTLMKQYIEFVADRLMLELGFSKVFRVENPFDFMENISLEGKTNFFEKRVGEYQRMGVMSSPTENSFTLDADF
To be noted: from the literature (NPL 7; PL 1); cited from earlier work.

The conditions of data set [2]: from the literature (NPL 10); off-target effect on Fe ion-containing proteins; cited from earlier work.

Regarding `NC(=O)NO` [HU, hydroxyurea, reference compound], the RNR inhibitory activity result in data set [1] was “weak”.

In the case of `NC(=S)NN=Cc1ncccc1N` [Compound 3-AP, 3-aminopyridine-2-carboxaldehyde thiosemicarbazone], in data set [2], the “side effects in clinical cases” value is “side effects such as hypoxia, dyspnea, methemoglobinemia”.
